# Experimental data published in patent publication US20170065663A1, “SUBSTANCE AND METHOD FOR TREATING INFLUENZA” (priority 2014, published 2017).
# Like-named read-outs stand apart in the source and are kept apart here.
# Columns and labels:
# [1] = Example I: degradation in IMDM media with 2.5% fetal bovine serum
# ECE-1 = target: T1, ECE-1 (Homo sapiens, UniProt P42892); conditions: cited from earlier work; for peptide present that is degraded: within 100 minutes of incubation
# T1 sequence (P42892 1-770): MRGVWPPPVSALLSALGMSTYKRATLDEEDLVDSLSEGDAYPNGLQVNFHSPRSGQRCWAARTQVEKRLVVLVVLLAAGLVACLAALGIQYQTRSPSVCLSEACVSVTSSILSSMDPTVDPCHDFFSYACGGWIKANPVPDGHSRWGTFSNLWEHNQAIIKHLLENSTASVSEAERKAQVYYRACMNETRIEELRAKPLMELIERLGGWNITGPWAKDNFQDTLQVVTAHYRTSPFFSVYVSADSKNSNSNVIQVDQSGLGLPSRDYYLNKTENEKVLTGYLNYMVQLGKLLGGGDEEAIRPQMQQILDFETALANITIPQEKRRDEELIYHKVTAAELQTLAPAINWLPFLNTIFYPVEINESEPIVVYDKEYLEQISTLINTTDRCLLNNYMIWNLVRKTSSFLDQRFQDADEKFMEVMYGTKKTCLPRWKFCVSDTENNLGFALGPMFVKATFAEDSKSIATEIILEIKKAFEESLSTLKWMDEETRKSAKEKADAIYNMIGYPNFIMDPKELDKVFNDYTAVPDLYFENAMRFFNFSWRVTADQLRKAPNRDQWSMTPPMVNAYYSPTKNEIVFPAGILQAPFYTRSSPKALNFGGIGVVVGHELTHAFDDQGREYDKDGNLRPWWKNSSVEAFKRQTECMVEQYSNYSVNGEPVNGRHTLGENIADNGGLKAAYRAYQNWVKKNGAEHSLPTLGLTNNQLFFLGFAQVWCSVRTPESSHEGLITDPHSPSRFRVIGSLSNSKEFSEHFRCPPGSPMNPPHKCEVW
# [2] = Example II: degradation of further Substance P analogs in IMDM media with 2.5% fetal bovine serum; conditions: 72 hours, present tense
# Influenza/A/Wuhan/359/95 [3] = test system: Influenza/A/Wuhan/359/95; design: species or system cotton rats (Sigmodon Hispidus); conditions: rat, in vivo
# [4] = test system: influenza virus subtypes H1N1, H3N2, H5N1 and H7N9; design: species or system mice, cotton rats and ferrets; conditions: in vivo
# Influenza/A/Wuhan/359/95 [5] = test system: Influenza/A/Wuhan/359/95; design: species or system cotton rats (Sigmodon Hispidus); conditions: rat, in vivo; remark: listed apart in the source
# [6] = test system: influenza virus subtypes H1N1, H3N2, H5N1 and H7N9; design: species or system mice, cotton rats and ferrets; conditions: in vivo; remark: listed apart in the source
SMILES,remaining at 72 h [1] [%],"additional degradation after long incubation (ECE-1; 195 nM ECE-1, 1200 minutes post-incubation)",time for 50% of the peptide present to become degraded (ECE-1; 195 nM ECE-1) [min],peptide present that is degraded (ECE-1; 195 nM ECE-1),initial concentration recovered [2] [%],body weight loss (Influenza/A/Wuhan/359/95 [3]),pulmonary inflammation (alveolitis and interstitial inflammation) (Influenza/A/Wuhan/359/95 [3]),flu-related symptoms compared with placebo [4],symptom reduction compared with subjects treated with an enumerated Substance P analog [4],body weight change following infection (Influenza/A/Wuhan/359/95 [5]),flu-related symptoms compared with placebo [6]
CC(C)C[C@H](NC(=O)CN(C)C(=O)[C@H](Cc1ccccc1)NC(=O)[C@H](Cc1ccccc1)NC(=O)[C@H](CCC(N)=O)NC(=O)[C@H](CCC(N)=O)NC(=O)[C@@H]1CCCN1C(=O)[C@H](CCCCN)NC(=O)[C@@H]1CCCN1C(=O)[C@@H](N)CCCNC(=N)N)C(=O)N[C@@H](CCS(C)(=O)=O)C(N)=O,59,no additional degradation occurs,~300,about 20%,–,–,–,–,–,–,–
CSCC[C@H](NC(=O)[C@H](CC(C)C)NC(=O)CNC(=O)[C@H](Cc1ccccc1)NC(=O)[C@H](Cc1ccccc1)NC(=O)[C@H](CCC(N)=O)NC(=O)[C@H](CCC(N)=O)NC(=O)[C@@H]1CCCN1C(=O)[C@H](CCCCN)NC(=O)[C@@H]1CCCN1C(=O)[C@@H](N)CCCN=C(N)N)C(N)=O [Substance P],24,–,–,~100%,24,–,–,–,–,–,–
"CCOC(=O)C1=C[C@@H](OC(CC)CC)[C@H](NC(C)=O)[C@@H](N)C1 [Tamiflu®, oseltamivir]",–,–,–,–,–,recover from weight-loss quicker than vehicle-treated controls,did not appear to affect pulmonary inflammation,fewer flu-related symptoms,do not exhibit the symptom reduction produced in the subjects treated with one of the enumerated Substance P analogs,greater loss in body weight than mock-treated/infected animals,fewer flu-related symptoms
